Experimental data reported in patent US7531519B2, “Polygalatenosides and use thereof as an antidepressant agent” (Medical and Pharmaceutical Industry Technology and …, priority 2006, dated 2009).

Target: T1, human norepinephrine transporter (Homo sapiens, UniProt P23975)
T1 construct: expressed in transfected cells; host or cells: MDCK (dog kidney) cells, stably transfected; total cell membranes
Test: [125I]RTI-55 membrane binding assay
Settings: for IC50: membranes of MDCK cells transfected with human NET, 0.2 nM [125I]RTI-55, 4° C., 3 h, read-out: IC50, inhibition of [125I]RTI-55 binding to norepinephrine transporter; for inhibition of [125I]RTI-55 binding to norepinephrine transporter (result in words): qualitative statement
Protocol: Membrane Binding Assay. Membranes from dog kidney MDCK cells, which stably transfected with the human norepinephrine transporter, were used. Total cell membranes were prepared from transfected cells grown to confluence in 500 cm^2 tissue culture dishes. Cells were scraped into centrifuge tube and pelleted at 900 g and 4° C. for 10 min. The pellets were resuspended in modified Tris-HCl buffer (50 mM Tris-HCl, 100 mM NaCl, 1 μM leupetin, 10 μM PMSF; pH 7.4), and centrifuged at 17000 g and 4° C. for 30 min. Then, the pellets were resuspended, homogenized with a glass homogenizer with a Teflon pestle and centrifuged at 17000 g and 4° C. for 90 minutes. Pellets were collected and resuspended in modified Tris-HCl buffer. Protein concentrations were determined using BCA protein assay reagent (Pierce, Rockford). […] The binding was terminated by rapid vacuum filtration over Whatman GF/B filters soaked in 0.3% polyethylineimine followed by three rapid 1 mL washes in ice-cold buffer. Bound radioactivity was measured by gamma emission spectrometry. Non-specific binding was determined in the presence of 10 μM desipramine and was subtracted from the data in the absence of desipramine to yield specific binding.

T1 sequence (P23975 whole entry): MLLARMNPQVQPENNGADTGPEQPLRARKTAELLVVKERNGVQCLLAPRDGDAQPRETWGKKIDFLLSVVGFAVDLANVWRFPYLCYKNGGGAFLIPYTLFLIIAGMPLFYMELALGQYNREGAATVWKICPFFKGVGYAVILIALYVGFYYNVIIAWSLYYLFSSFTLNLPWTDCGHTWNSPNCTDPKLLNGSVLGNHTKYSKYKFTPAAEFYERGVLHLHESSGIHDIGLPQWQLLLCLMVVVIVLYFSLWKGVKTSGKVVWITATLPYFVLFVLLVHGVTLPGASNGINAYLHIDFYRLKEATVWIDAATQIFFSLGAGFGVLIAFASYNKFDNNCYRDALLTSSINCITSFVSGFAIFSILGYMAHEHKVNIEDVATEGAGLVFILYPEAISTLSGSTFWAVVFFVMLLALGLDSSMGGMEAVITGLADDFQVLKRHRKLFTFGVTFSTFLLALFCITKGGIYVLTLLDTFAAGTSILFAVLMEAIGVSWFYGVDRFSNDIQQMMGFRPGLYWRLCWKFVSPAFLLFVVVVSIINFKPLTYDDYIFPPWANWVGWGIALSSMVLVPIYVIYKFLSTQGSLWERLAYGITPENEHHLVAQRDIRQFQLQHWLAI

SMILES	IC50 [µM]	inhibition of [125I]RTI-55 binding to norepinephrine transporter (result in words)
O=C(OCC1OC(OC2COC(CO)C(O)C2O)C(O)C(O)C1O)c1ccccc1 (stereo not drawn) [Compound 1, 6-O-benzoyl polygolitosyl-(2→1)-α-galactose]	30	more potent than the others
O=C(OC1C(O)C(CO)OC(OC2COC(CO)C(O)C2O)C1O)c1ccccc1 (stereo not drawn) [Compound 2, 3-O-benzoyl-polygolitosyl-(2→1)-α-galactose]	6.04	more potent than the others
